Target: T1, recombinant Axl tyrosine kinase (Homo sapiens, UniProt P30530)
T1 construct: encompassing amino acids 473 to 894 of Axl; GST (N); made in house; host or cells: SF126 insect cells
T1 sequence (P30530 473-894): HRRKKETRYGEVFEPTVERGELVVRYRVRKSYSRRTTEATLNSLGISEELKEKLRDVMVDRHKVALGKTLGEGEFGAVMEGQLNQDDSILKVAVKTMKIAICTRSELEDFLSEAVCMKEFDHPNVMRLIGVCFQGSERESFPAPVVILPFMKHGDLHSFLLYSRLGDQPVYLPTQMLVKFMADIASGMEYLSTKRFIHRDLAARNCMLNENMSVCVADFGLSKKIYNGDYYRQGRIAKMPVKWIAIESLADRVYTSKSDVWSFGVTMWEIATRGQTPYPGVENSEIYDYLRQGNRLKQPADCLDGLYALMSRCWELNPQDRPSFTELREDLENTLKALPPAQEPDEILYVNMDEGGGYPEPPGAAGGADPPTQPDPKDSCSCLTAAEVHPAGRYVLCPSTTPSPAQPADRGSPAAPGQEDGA
Assay: In vitro Axl kinase assay (AlphaScreen), Test (a)
Assay type: biochemical
Conditions: for inhibition at 1 µM / % Axl tyrosine kinase inhibition at 1 μM concentration: test compound at 1 μM, first value quoted; for inhibition at 1 µM: read-out: % Axl tyrosine kinase inhibition at 1 μM concentration
Experimental: Test compounds were prepared as 10 mM stock solutions in dimethylsulphoxide (DMSO) and diluted in DMSO as required. Aliquots (120 nl) of compound dilutions were filled into the wells of a Greiner 384-well low volume (LV) white polystyrene plate (Greiner Bio-one) using acoustic dispensing (Labcyte Echo 550). A 10 μl mixture of recombinant purified Axl enzyme, biotinylated peptide substrate (Biotin poly-GAT; CisBio, Catalogue No. 61GATBLB), 0.2 μM adenosine triphosphate (ATP) and a buffer solution [comprising 20 mM Tris-HCl pH 7.5 buffer, 0.01% v/v Tween, 5 mM dithiothreitol (DTT) and 10 mM manganese chloride] was incubated with the compounds at room temperature for 20 minutes.
Control wells that produced a minimum signal corresponding to 100% inhibited enzyme were created by adding 10 μM of Staurosporine.
The percentage kinase inhibition value is the percentage of Axl tyrosine kinase activity inhibited by the test compound at a concentration of 1 μM.

Row | % Axl tyrosine kinase inhibition at 1 μM concentration | Structure (SMILES) | also measured
1 | – | COCc1nn(C2CCN(C(=O)CN(C)C)CC2)cc1-c1cnc(N)c(-c2nc3ccccc3o2)c1 [Example 71, 1-[4-[4-[6-amino-5-(1,3-benzoxazol-2-yl)-3-pyridyl]-3-(methoxymethyl)pyrazol-1-yl]-1-piperidyl]-2-dimethylaminoethanone] | inhibition at 1 µM: 100%
2 | – | CN1CCC(n2cc(-c3cnc(N)c(-c4nc5cccc(CO)c5o4)c3)cn2)CC1 [Example 65, [2-[2-amino-5-[1-(1-methyl-4-piperidyl)pyrazol-4-yl]-3-pyridyl]-1,3-benzoxazol-7-yl]methanol] | inhibition at 1 µM: 100%
3 | 100.0% | Nc1ncc(-c2cnn(CCCN3CCC(O)C3)c2)cc1-c1nc2ccccc2o1 (stereo not drawn) [Example 31.1] | –
4 | – | CN(C)CC(=O)N1CCC(n2cc(-c3cnc(N)c(-c4nc5ncccc5o4)c3)cn2)CC1 [Example 58, 1-[4-[4-(6-amino-5-oxazolo[4,5-b]pyridin-2-yl-3-pyridyl)pyrazol-1-yl]-1-piperidyl]-2-dimethylamino-ethanone] | inhibition at 1 µM: 99.5%
5 | 99.5% | CN1CCC(n2cc(-c3cnc(N)c(-c4nc5c(F)cccc5o4)c3)c(C(=O)N(C)C)n2)CC1 [Example 41.37] | –
6 | 73.2% | Nc1ncc(-c2cccc(C(=O)NC3CC3)c2)cc1-c1nc2cccnc2o1 [Example 9A.17] | –
7 | 98.9% | CCN(CC)CCCOc1ccc(-c2cnc(N)c(-c3nc4ncccc4o3)c2)cc1 [Example 43B.20] | –
8 | 99.1% | CO[C@H](C)C(=O)N1CCC(n2cc(-c3cnc(N)c(-c4nc5cccnc5o4)c3)cn2)CC1 [Example 59.9] | –
9 | 90.1% | Nc1ncc(-c2ccc(CO)s2)cc1-c1nc2ncccc2o1 [Example 10A.19] | –
10 | 99.8% | Nc1ncc(-c2cnn(C3CCOCC3)c2)cc1-c1nc2ccccc2o1 [Example 27.7] | –
11 | – | CS(=O)(=O)c1cccc(-c2cnc(N)c(-c3nc4cnccc4o3)c2)c1 [Example 8A.3] | % of Axl tyrosine kinase activity inhibited at a concentration of 30 μM (test compound at 30 μM): ^###the compound disclosed in Example 8A.3 inhibited 100% of Axl tyrosine kinase activity at a concentration of 30 μM.
12 | 98.1% | Nc1ncc(-c2ccc(OC3CCNCC3)cc2)cc1-c1nc2ncccc2o1 [Example 43B.33] | –
13 | 87.2% | CC(C)(C)OC(=O)N1CCC(C(=O)Nc2cccc(-c3cnc(N)c(-c4nc5ncccc5o4)c3)c2)CC1 [Example 10A.3] | –
14 | 99.0% | CS(=O)(=O)N1CCC(n2cc(-c3cnc(N)c(-c4nc5ncccc5o4)c3)cn2)CC1 [Example 55.1] | –
15 | 96.1% | CN(C)[C@H]1CCN(C(=O)c2ccc(-c3cnc(N)c(-c4nc5cccnc5o4)c3)cc2)C1 [Example 45A.77] | –
16 | 98.1% | COc1cc(-c2cnc(N)c(-c3nc4ncccc4o3)c2)ccc1OCC#CCN1CCS(=O)(=O)CC1 [Example 43C.20] | –
17 | 91.6% | CN(C)C(=O)[C@@H]1CCCN1C(=O)c1ccc(-c2cnc(N)c(-c3nc4cccnc4o3)c2)cc1 [Example 45A.75] | –
18 | 99.6% | CC(C)c1ccc2nc(-c3cc(-c4cnn(C5CCN(C)CC5)c4)cnc3N)oc2c1 [Example 7.4] | –
19 | 99.1% | Nc1ncc(-c2cnn(CC3CNC3)c2)cc1-c1nc2ccccc2o1 [Example 29.4] | –
20 | 100.0% | CN1CCC(n2cc(-c3cnc(N)c(-c4nc5ccccc5o4)c3)cn2)C1 (stereo not drawn) [Example 41.9] | –
21 | 99.0% | Nc1ncc(-c2cccc(CN3CCCC3)c2)cc1-c1nc2ccccc2o1 [Example 2.6] | –
22 | 98.9% | Nc1ncc(-c2ccc(C(=O)N3CC4CNCC4C3)cc2)cc1-c1nc2cccnc2o1 (stereo not drawn) [Example 45A.94] | –
23 | 93.6% | Nc1ncc(-c2cccc(N3CCOCC3)c2)cc1-c1nc2ccccc2o1 [Example 2.49] | % Axl tyrosine kinase inhibition at 1 μM concentration (second value, †) (1 μM, mean calculated from a larger number of replicates than the first value): 94.5%
24 | 98.9% | CC(=O)NCC(=O)N1CCC(n2cc(-c3cnc(N)c(-c4nc5ncccc5o4)c3)cn2)CC1 [Example 59.3] | –
25 | 99.6% | CN1CCCCC1CNC(=O)c1ccc(-c2cnc(N)c(-c3nc4cccnc4o3)c2)cc1 (stereo not drawn) [Example 45A.26] | –

Row | % Axl tyrosine kinase inhibition at 1 μM concentration | Structure (SMILES) | also measured
26 | 98.9% | COc1cc(-c2cnc(N)c(-c3nc4ncccc4o3)c2)ccc1OCCCN(C)C [Example 43C.10] | –
27 | 99.6% | CNCCCNC(=O)c1ccc(-c2cnc(N)c(-c3nc4cccnc4o3)c2)cc1 [Example 45A.81] | –
28 | 98.3% | Nc1ncc(-c2ccc(OCC3CCNCC3)cc2)cc1-c1nc2ncccc2o1 [Example 43B.36] | –
29 | 97.1% | Nc1ncc(-c2ccc(C(=O)N3CC[C@H](N4CCCC4)C3)cc2)cc1-c1nc2cccnc2o1 [Example 45A.22] | –
30 | 99.9% | Nc1ncc(-c2ccc(C(=O)N3CCC[C@H]3CN3CCCC3)cc2)cc1-c1nc2cccnc2o1 [Example 45A.66] | –
31 | 98.9% | Nc1ncc(-c2ccc(OC3CCCNC3)cc2)cc1-c1nc2ncccc2o1 (stereo not drawn) [Example 43B.30] | –
32 | 95.1% | CN1CCN(CCCOc2ccc(-c3cnc(N)c(-c4nc5ncccc5o4)c3)cc2)CC1 [Example 43B.14] | –
33 | 99.9% | CN(C)C(=O)CN1CCC(n2cc(-c3cnc(N)c(-c4nc5ccccc5o4)c3)cn2)CC1 [Example 53.8] | –
34 | 99.9% | CC(C)N1CCC[C@H]1CNC(=O)c1ccc(-c2cnc(N)c(-c3nc4cccnc4o3)c2)cc1 [Example 45A.43] | –
35 | 99.0% | Nc1ncc(-c2ccc(C(=O)NCCCN3CCCCC3)cc2)cc1-c1nc2cccnc2o1 [Example 45A.9] | –
36 | 93.8% | C[C@@H]1CN(CCNC(=O)c2ccc(-c3cnc(N)c(-c4nc5cccnc5o4)c3)cc2)C[C@H](C)O1 [Example 45A.45] | –
37 | 92.7% | Nc1ncc(-c2ccc(C(=O)N3CCOCC3)cc2)cc1-c1nc2ncccc2o1 [Example 10A.14] | –
38 | 92.9% | CN(C)C1CCN(C(=O)c2ccc(-c3cnc(N)c(-c4nc5cccnc5o4)c3)cc2)CC1 [Example 45A.1] | –
39 | – | Nc1ncc(-c2cnn(C3CCNCC3)c2)cc1-c1nc2ccncc2o1 [Example 11, 3-Oxazolo[5,4-c]pyridin-2-yl-5-[1-(4-piperidyl)pyrazol-4-yl]pyridin-2-amine] | inhibition at 1 µM: 99%
40 | 100.0% | CNC(=O)c1cccc2nc(-c3cc(-c4cnn(C5CCN(C)CC5)c4)cnc3N)oc12 [Example 41.36] | –
41 | 95.6% | Nc1ncc(-c2ccc(CN3CCOCC3)cc2)cc1-c1nc2cccnc2o1 [Example 9A.21] | –
42 | 89.8% | N#Cc1cccc(-c2cnc(N)c(-c3nc4cccnc4o3)c2)c1 [Example 9A.1] | –
43 | – | Cc1cccc2nc(-c3cc(-c4cnn(C5CCN(C)CC5)c4)cnc3N)oc12 [Example 36, 3-(7-methyl-1,3-benzoxazol-2-yl)-5-[1-(1-methyl-4-piperidyl)pyrazol-4-yl]pyridin-2-amine] | inhibition at 1 µM: 100%
44 | 92.1% | COc1cccc2oc(-c3cc(-c4cnn(C5CCN(C)CC5)c4)cnc3N)nc12 [Example 41.24] | –
45 | – | CNC(=O)[C@@H]1C[C@@H](n2cc(-c3cnc(N)c(-c4nc5ccccc5o4)c3)cn2)CN1C [Example 39, (2S,4R)-4-[4-[6-amino-5-(1,3-benzoxazol-2-yl)-3-pyridyl]pyrazol-1-yl]-N,1-dimethyl-pyrrolidine-2-carboxamide] | inhibition at 1 µM: 99.9%
46 | 99.8% | COCC1CC(Oc2ccc(-c3cnc(N)c(-c4nc5ncccc5o4)c3)cc2OC)CN1 (stereo not drawn) [Example 43C.36] | –
47 | 99.0% | CN(C)C1(CNC(=O)c2ccc(-c3cnc(N)c(-c4nc5cccnc5o4)c3)cc2)CCCCC1 [Example 45A.41] | –
48 | – | CC(C)(C)OC(=O)N1CCC(n2cc(-c3cnc(N)c(-c4nc5ccccc5o4)c3)cn2)CC1 [Example 2.2, tert-butyl 4-[4-[6-amino-5-(1,3-benzoxazol-2-yl)-3-pyridyl]pyrazol-1-yl]piperidine-1-carboxylate] | inhibition at 1 µM: 99.5%
49 | 77.4% | Nc1ncc(-c2ccc(C(=O)N3CCC4(CCCNC4)CC3)cc2)cc1-c1nc2cccnc2o1 [Example 45A.87] | –

Row | Structure (SMILES) | % Axl tyrosine kinase inhibition at 1 μM concentration | also measured
50 | Nc1ncc(-c2cnn(C3CCN(C(=O)CO)CC3)c2)cc1-c1nc2ccccc2o1 [Example 34.2] | 100.0% | –

Reference: US8017611B2, “Pyridine and pyrazine derivatives -083” (AstraZeneca AB, priority 2007, dated 2011)
